Assay results from ChEMBL document CHEMBL1150902, “Certain norditerpenoid alkaloids and their cardiovascular action” (1998).
Activity calls are given as the source filed them. The calls are words filed in the database; no cut-off is given here.

Legend:
Rattus norvegicus [1] = assay: Cardiovascular activity in anesthetized Sprague-Dawley rat assessed as reduction in heart rat at 400 ug/kg, iv; format: functional; set-up: scale not given: the % may be the effect or the level left
Rattus norvegicus [2] = assay: Cardiovascular activity in anesthetized Sprague-Dawley rat assessed as reduction in blood pressure at 200 ug/kg, iv; format: functional; set-up: scale not given: the % may be the effect or the level left
Rattus norvegicus [3] = assay: Cardiovascular activity in anesthetized Sprague-Dawley rat assessed as reduction in blood pressure at 400 ug/kg, iv; format: functional; set-up: scale not given: the % may be the effect or the level left
Rattus norvegicus [4] = assay: Cardiovascular activity in anesthetized Sprague-Dawley rat assessed as reduction in heart rate at 200 ug/kg, iv; format: functional; set-up: scale not given: the % may be the effect or the level left
Canis familiaris [5] = assay: Cardiovascular activity in dog assessed as decrease in cardial vagal efferent nerve activity at 150 ug/kg, iv; format: functional, Canis lupus familiaris; set-up: scale not given: the % may be the effect or the level left
Canis familiaris [6] = assay: Cardiovascular activity in dog assessed as increase in cardial vagal afferent nerve activity at 150 ug/kg, iv; format: functional, Canis lupus familiaris
Rattus norvegicus [7] = assay: Cardiovascular activity in anesthetized Sprague-Dawley rat assessed as induction of cardiac arrhythmia at 400 ug/kg, iv; format: functional, organism-based; conditions: Heart
Rattus norvegicus [8] = assay: Cardiovascular activity in anesthetized Sprague-Dawley rat assessed as induction of cardiac arrhythmia at 200 ug/kg, iv; format: functional, organism-based; conditions: Heart

CC[N+]1([O-])C[C@]2(C)CC[C@H](OC)[C@]34C1[C@H]([C@@H](O)[C@H]23)[C@@]1(O)CC[C@H]2C[C@@H]4[C@@H]1C(=O)O2 (stereo not given in full)
Activity (Rattus norvegicus [1]): 8.9% | Activity (Rattus norvegicus [2]): 28.1% | Activity (Rattus norvegicus [3]): 7.6% | Activity (Rattus norvegicus [4]): 18.8%

CCN1C[C@]2(COC)CC[C@H](OC)[C@@]34C1[C@@H](C1=C[C@H](OC)[C@@]5(O)C[C@@H]3[C@@H]1[C@H]5OC(=O)c1ccccc1)[C@H](OC)[C@H]24 [PYRODELPHININE]
Activity (Rattus norvegicus [1]): 8.1% | Activity (Rattus norvegicus [2]): 23.1% | Activity (Rattus norvegicus [3]): 14.3% | Activity (Rattus norvegicus [4]): 7.7%

CCN1C[C@@]2(COC)[C@H]3[C@@H](OC)[C@H]4C1[C@]3([C@@H](OC)C[C@H]2OC(C)=O)[C@@H]1C[C@]2(OC(C)=O)[C@@H](OC)C[C@@]4(OC(C)=O)[C@H]1[C@H]2OC(=O)c1ccc(OC)c(OC)c1
Activity (Rattus norvegicus [1]): 0% | Activity (Rattus norvegicus [2]): 13.2% | Activity (Rattus norvegicus [3]): 0% | Activity (Rattus norvegicus [4]): 5.4%

CCN1C[C@]2(COC)CC[C@H](OC)[C@]34C1[C@H]([C@H](OC)[C@H]23)[C@@]1(OC(=O)c2cccc3cc5ccccc5cc23)C=C[C@@]2(O)C[C@@H]4[C@@H]1[C@H]2OC(=O)c1ccccc1
Activity (Rattus norvegicus [1]): 3.8% | Activity (Rattus norvegicus [2]): 0% | Activity (Rattus norvegicus [3]): 9.2% | Activity (Rattus norvegicus [4]): 3.7%

CCN1C[C@]2(COC)CC[C@H](OC)[C@]34C1[C@H]([C@H](OC)[C@H]23)[C@@]1(OC(=O)c2cccc3cc5ccccc5cc23)C[C@H](OC)[C@@]2(O)C[C@@H]4[C@@H]1[C@H]2OC(=O)c1ccccc1
Activity (Rattus norvegicus [1]): 2% | Activity (Rattus norvegicus [2]): 20.8% | Activity (Rattus norvegicus [3]): 0% | Activity (Rattus norvegicus [4]): 4.2%

CCN1C[C@]2(COC)CC[C@H](OC)[C@]34C1[C@H]([C@H](OC)[C@H]23)[C@@]1(OC(=O)c2ccc(N)cc2)C[C@H](OC)[C@@]2(O)C[C@@H]4[C@@H]1[C@H]2OC(=O)c1ccccc1
Activity (Rattus norvegicus [1]): 14.8% | Activity (Rattus norvegicus [2]): 42.4% | Activity (Rattus norvegicus [3]): 38% | Activity (Rattus norvegicus [4]): 8.4%

CCN1C[C@]2(COC)CC[C@H](OC)[C@]34C1[C@H](C[C@H]23)[C@H]1C[C@@H](OC)[C@@]2(O)C[C@@H]4[C@@H]1[C@H]2OC(=O)c1ccccc1
Activity (Rattus norvegicus [1]): 3% | Activity (Rattus norvegicus [2]): 22.6% | Activity (Rattus norvegicus [3]): 27.6% | Activity (Rattus norvegicus [4]): 0%

CCN1C[C@]2(OC(=O)c3ccccc3N)CC[C@H](OC)[C@]34C1[C@H](C[C@H]23)[C@@]1(O)C[C@H](OC)[C@H]2C[C@@H]4[C@]1(O)[C@H]2OC
Activity (Rattus norvegicus [1]): 14.8% | Activity (Rattus norvegicus [2]): 27.2% | Activity (Rattus norvegicus [3]): 57.6% | Activity (Canis familiaris [5]): 23.5% | Activity (Rattus norvegicus [4]): 12.7% | Activity (Canis familiaris [6]): 40%

CC/C=C\C/C=C\C/C=C\CCCCCCCCC(=O)O[C@]12C[C@H](OC)[C@H]3C[C@H]([C@@H]1[C@H]3OC(=O)c1ccc(OC)c(OC)c1)[C@@]13C4[C@@H]2[C@H](OC)[C@@H]1[C@](COC)(CN4CC)[C@H](O)C[C@@H]3OC
Activity (Rattus norvegicus [1]): 24.5% | Activity (Rattus norvegicus [2]): 30.3% | Activity (Rattus norvegicus [3]): 53.4% | Activity (Rattus norvegicus [4]): 8.5%

CCCCCCCCCCCCCCCCCC(=O)O[C@]12C[C@H](OC)[C@H]3C[C@H]([C@@H]1[C@H]3OC(=O)c1ccc(OC)c(OC)c1)[C@@]13C4[C@@H]2[C@H](OC)[C@@H]1[C@](COC)(CN4CC)[C@H](O)C[C@@H]3OC
Activity (Rattus norvegicus [1]): 24.5% | Activity (Rattus norvegicus [2]): 15.3% | Activity (Rattus norvegicus [3]): 53.4% | Activity (Rattus norvegicus [4]): 0%

CCN1C[C@]2(COC)CC[C@H](OC)[C@]34C1[C@H]([C@H](OC)[C@H]23)[C@@]1(OC(=O)/C=C/c2ccc(O)c(OC)c2)C[C@H](OC)[C@@]2(O)C[C@@H]4[C@@H]1[C@H]2OC(=O)c1ccccc1
Activity (Rattus norvegicus [1]): 8.3% | Activity (Rattus norvegicus [2]): 8.8% | Activity (Rattus norvegicus [3]): 10.6% | Activity (Rattus norvegicus [4]): 8.3%

CCN1C[C@]2(OC(=O)c3ccccc3N)CC[C@H](OC)[C@]34C1[C@H](C[C@H]23)[C@@]1(OC(C)=O)C[C@H](OC)[C@H]2C[C@@H]4[C@]1(OC(C)=O)[C@H]2OC
Activity (Rattus norvegicus [1]): 0% | Activity (Rattus norvegicus [2]): 0% | Activity (Rattus norvegicus [3]): 0% | Activity (Rattus norvegicus [4]): 0%

CC[N+]1([O-])C[C@]2(COC)CC[C@H](OC)[C@]34C1[C@H]([C@H](OC)[C@H]23)[C@@]1(OC(C)=O)C[C@H](OC)[C@@]2(OC(C)=O)C[C@@H]4[C@@H]1[C@H]2OC(=O)c1ccccc1 (stereo not given in full)
Activity (Rattus norvegicus [1]): 8.7% | Activity (Rattus norvegicus [2]): 0% | Activity (Rattus norvegicus [3]): 13.4% | Activity (Rattus norvegicus [4]): 3.8%

CCN1C[C@]2(OC(=O)c3ccccc3NC(C)=O)CC[C@H](OC)[C@]34C1[C@H](C[C@H]23)[C@@]12C[C@H](OC)[C@H]3C[C@@H]4[C@]1(OCO2)[C@H]3OC
Activity (Rattus norvegicus [1]): 5.6% | Activity (Rattus norvegicus [2]): 26% | Activity (Rattus norvegicus [3]): 16.4% | Activity (Rattus norvegicus [4]): 5.7%

CCN1C[C@@]2(COC)[C@H]3[C@@H](OC)[C@H]4C1[C@]3([C@@H](OC)C[C@H]2OC(C)=O)[C@@H]1C[C@H]2[C@H](OC(=O)c3ccc(OC)c(OC)c3)[C@@H]1[C@]4(OC(C)=O)C[C@@H]2OC
Activity (Rattus norvegicus [7]): Active | Activity (Rattus norvegicus [8]): Active
